Assays:
Assay in all cases: relative viability (nuclei count vs DMSO), 5 days (fraction); higher = more cells survive
[1] = compound: CCn1c(-c2nonc2N)nc2c(C#CC(C)(C)O)ncc(OC[C@H]3CCCNC3)c21 + Cc1cc(Nc2cc(N3CCN(C)CC3)nc(Sc3ccc(NC(=O)C4CC4)cc3)n2)n[nH]1 [Tozasertib] (partner 0.1 µM)
Summary of the method: (§1)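 Relative viability was taken as the ratio of nuclei in treated wells to nuclei in vehicle wells. Lung cancer cell lines in 1536-well plates received compounds by pin tool one day after seeding, either one drug alone or a fixed anchor-drug dose plus five library-drug doses (not always all listed) in √10 steps. Nuclei were counted on 4× images after 5 days of treatment, and values are medians of duplicate plates.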

BAM7 + Dasatinib = compound: CCOC1=CC=CC=C1N=NC2=C(NN(C2=O)C3=NC(=CS3)C4=CC=CC=C4)C [BAM7] + Cc1nc(Nc2ncc(C(=O)Nc3c(C)cccc3Cl)s2)cc(N2CCN(CCO)CC2)n1 [Dasatinib] (partner 0.075 µM)
Summary of the method: as §1

[2] = compound: CCn1c(-c2nonc2N)nc2c(C#CC(C)(C)O)ncc(OC[C@H]3CCCNC3)c21 + Nc1nc2[nH]cc(CCc3ccc(C(=O)N[C@@H](CCC(=O)O)C(=O)O)cc3)c2c(=O)[nH]1 [Pemetrexed] (partner 0.2 µM)
Summary of the method: as §1

BAM7 + Navitoclax = compound: CCOC1=CC=CC=C1N=NC2=C(NN(C2=O)C3=NC(=CS3)C4=CC=CC=C4)C [BAM7] + CC1(C)CCC(c2ccc(Cl)cc2)=C(CN2CCN(c3ccc(C(=O)NS(=O)(=O)c4ccc(N[C@H](CCN5CCOCC5)CSc5ccccc5)c(S(=O)(=O)C(F)(F)F)c4)cc3)CC2)C1 [Navitoclax] (partner 0.5 µM)
Summary of the method: as §1

Cell Line: 201T
- relative viability ([1]; first compound 0.01 µM): 0.954
- relative viability ([1]; first compound 0.03162 µM): 0.948
- relative viability ([1]; first compound 0.1 µM): 0.914
- relative viability ([1]; first compound 0.3162 µM): 0.933
- relative viability ([1]; first compound 1 µM): 0.963
- relative viability (BAM7 + Dasatinib; first compound 0.5 µM): 0.659
- relative viability (BAM7 + Dasatinib; first compound 5 µM): 0.56
- relative viability (BAM7 + Dasatinib; first compound 15.81 µM): 0.461
- relative viability (BAM7 + Dasatinib; first compound 50 µM): 0.497
- relative viability ([2]; first compound 0.01 µM): 0.321
- relative viability ([2]; first compound 0.03162 µM): 0.317
- relative viability ([2]; first compound 0.1 µM): 0.343
- relative viability ([2]; first compound 0.3162 µM): 0.333
- relative viability ([2]; first compound 1 µM): 0.311
- relative viability (BAM7 + Navitoclax; first compound 0.5 µM): 1.18
- relative viability (BAM7 + Navitoclax; first compound 5 µM): 1.27
- relative viability (BAM7 + Navitoclax; first compound 15.81 µM): 1.12
- relative viability (BAM7 + Navitoclax; first compound 50 µM): 1.03

Cell Line: A549
- relative viability (BAM7 + Navitoclax; first compound 0.5 µM): 1.34
- relative viability (BAM7 + Navitoclax; first compound 5 µM): 1.27
- relative viability (BAM7 + Navitoclax; first compound 15.81 µM): 1.16
- relative viability (BAM7 + Navitoclax; first compound 50 µM): 1.27

Cell Line: A-427
- relative viability ([1]; first compound 0.01 µM): 0.243
- relative viability ([1]; first compound 0.03162 µM): 0.227
- relative viability ([1]; first compound 0.1 µM): 0.251
- relative viability ([1]; first compound 0.3162 µM): 0.24
- relative viability ([1]; first compound 1 µM): 0.188
- relative viability (BAM7 + Dasatinib; first compound 0.5 µM): 0.845
- relative viability (BAM7 + Dasatinib; first compound 5 µM): 0.71
- relative viability (BAM7 + Dasatinib; first compound 15.81 µM): 0.664
- relative viability (BAM7 + Dasatinib; first compound 50 µM): 0.826
- relative viability ([2]; first compound 0.01 µM): 0.925
- relative viability ([2]; first compound 0.03162 µM): 0.999
- relative viability ([2]; first compound 0.1 µM): 0.876
- relative viability ([2]; first compound 0.3162 µM): 0.91
- relative viability ([2]; first compound 1 µM): 1.08
- relative viability (BAM7 + Navitoclax; first compound 0.5 µM): 0.991
- relative viability (BAM7 + Navitoclax; first compound 5 µM): 0.921
- relative viability (BAM7 + Navitoclax; first compound 15.81 µM): 0.974
- relative viability (BAM7 + Navitoclax; first compound 50 µM): 0.971

Cell Line: ABC-1
- relative viability ([1]; first compound 0.01 µM): 0.167
- relative viability ([1]; first compound 0.03162 µM): 0.169
- relative viability ([1]; first compound 0.1 µM): 0.176
- relative viability ([1]; first compound 0.3162 µM): 0.151
- relative viability ([1]; first compound 1 µM): 0.154
- relative viability (BAM7 + Dasatinib; first compound 0.5 µM): 0.675
- relative viability (BAM7 + Dasatinib; first compound 5 µM): 0.624
- relative viability (BAM7 + Dasatinib; first compound 15.81 µM): 0.496
- relative viability (BAM7 + Dasatinib; first compound 50 µM): 0.61

Cell Line: BEN
- relative viability ([1]; first compound 0.01 µM): 0.588
- relative viability ([1]; first compound 0.03162 µM): 0.481
- relative viability ([1]; first compound 0.1 µM): 0.476
- relative viability ([1]; first compound 0.3162 µM): 0.53
- relative viability ([1]; first compound 1 µM): 0.515
- relative viability (BAM7 + Dasatinib; first compound 0.5 µM): 0.351
- relative viability (BAM7 + Dasatinib; first compound 5 µM): 0.351
- relative viability (BAM7 + Dasatinib; first compound 15.81 µM): 0.323
- relative viability (BAM7 + Dasatinib; first compound 50 µM): 0.42
- relative viability ([2]; first compound 0.01 µM): 0.779
- relative viability ([2]; first compound 0.03162 µM): 0.821
- relative viability ([2]; first compound 0.1 µM): 0.605
- relative viability ([2]; first compound 0.3162 µM): 0.753
- relative viability ([2]; first compound 1 µM): 0.773
- relative viability (BAM7 + Navitoclax; first compound 0.5 µM): 0.0506
- relative viability (BAM7 + Navitoclax; first compound 5 µM): 0.068
- relative viability (BAM7 + Navitoclax; first compound 15.81 µM): 0.0675
- relative viability (BAM7 + Navitoclax; first compound 50 µM): 0.068

Cell Line: CAL-12T
- relative viability ([1]; first compound 0.01 µM): 0.351
- relative viability ([1]; first compound 0.03162 µM): 0.354
- relative viability ([1]; first compound 0.1 µM): 0.303
- relative viability ([1]; first compound 0.3162 µM): 0.309
- relative viability ([1]; first compound 1 µM): 0.298
- relative viability (BAM7 + Dasatinib; first compound 0.5 µM): 0.507
- relative viability (BAM7 + Dasatinib; first compound 5 µM): 0.326
- relative viability (BAM7 + Dasatinib; first compound 15.81 µM): 0.402
- relative viability (BAM7 + Dasatinib; first compound 50 µM): 0.337
- relative viability ([2]; first compound 0.01 µM): 1.12
- relative viability ([2]; first compound 0.03162 µM): 1.2
- relative viability ([2]; first compound 0.1 µM): 1.13
- relative viability ([2]; first compound 0.3162 µM): 0.994
- relative viability ([2]; first compound 1 µM): 1.2
- relative viability (BAM7 + Navitoclax; first compound 0.5 µM): 1.1
- relative viability (BAM7 + Navitoclax; first compound 5 µM): 1.2
- relative viability (BAM7 + Navitoclax; first compound 15.81 µM): 1.14
- relative viability (BAM7 + Navitoclax; first compound 50 µM): 1.26

Cell Line: COR-L23
- relative viability ([1]; first compound 0.01 µM): 0.202
- relative viability ([1]; first compound 0.03162 µM): 0.19
- relative viability ([1]; first compound 0.1 µM): 0.235
- relative viability ([1]; first compound 0.3162 µM): 0.188
- relative viability ([1]; first compound 1 µM): 0.18
- relative viability (BAM7 + Dasatinib; first compound 0.5 µM): 0.476
- relative viability (BAM7 + Dasatinib; first compound 5 µM): 0.481
- relative viability (BAM7 + Dasatinib; first compound 15.81 µM): 0.385
- relative viability (BAM7 + Dasatinib; first compound 50 µM): 0.502
- relative viability ([2]; first compound 0.01 µM): 0.212
- relative viability ([2]; first compound 0.03162 µM): 0.207
- relative viability ([2]; first compound 0.1 µM): 0.202
- relative viability ([2]; first compound 0.3162 µM): 0.187
- relative viability ([2]; first compound 1 µM): 0.196
- relative viability (BAM7 + Navitoclax; first compound 0.5 µM): 1.03
- relative viability (BAM7 + Navitoclax; first compound 5 µM): 1.15
- relative viability (BAM7 + Navitoclax; first compound 15.81 µM): 0.986
- relative viability (BAM7 + Navitoclax; first compound 50 µM): 0.955

Cell Line: COR-L 105
- relative viability ([1]; first compound 0.01 µM): 0.31
- relative viability ([1]; first compound 0.03162 µM): 0.432
- relative viability ([1]; first compound 0.1 µM): 0.407
- relative viability ([1]; first compound 0.3162 µM): 0.367
- relative viability ([1]; first compound 1 µM): 0.374
- relative viability (BAM7 + Dasatinib; first compound 0.5 µM): 0.308
- relative viability (BAM7 + Dasatinib; first compound 5 µM): 0.407
- relative viability (BAM7 + Dasatinib; first compound 15.81 µM): 0.455
- relative viability (BAM7 + Dasatinib; first compound 50 µM): 0.501
- relative viability ([2]; first compound 0.01 µM): 1.18
- relative viability ([2]; first compound 0.03162 µM): 1.21
- relative viability ([2]; first compound 0.1 µM): 1.18
- relative viability ([2]; first compound 0.3162 µM): 1.23
- relative viability ([2]; first compound 1 µM): 1.3
- relative viability (BAM7 + Navitoclax; first compound 0.5 µM): 0.825
- relative viability (BAM7 + Navitoclax; first compound 5 µM): 0.664
- relative viability (BAM7 + Navitoclax; first compound 15.81 µM): 0.784
- relative viability (BAM7 + Navitoclax; first compound 50 µM): 0.826

Cell Line: Calu-6
- relative viability (BAM7 + Navitoclax; first compound 0.5 µM): 0.911
- relative viability (BAM7 + Navitoclax; first compound 5 µM): 0.919
- relative viability (BAM7 + Navitoclax; first compound 15.81 µM): 0.906
- relative viability (BAM7 + Navitoclax; first compound 50 µM): 0.824

Cell Line: ChaGo-K-1
- relative viability ([1]; first compound 0.01 µM): 0.216
- relative viability ([1]; first compound 0.03162 µM): 0.245
- relative viability ([1]; first compound 0.1 µM): 0.228
- relative viability ([1]; first compound 0.3162 µM): 0.248
- relative viability ([1]; first compound 1 µM): 0.248
- relative viability (BAM7 + Dasatinib; first compound 0.5 µM): 0.641
- relative viability (BAM7 + Dasatinib; first compound 5 µM): 0.523
- relative viability (BAM7 + Dasatinib; first compound 15.81 µM): 0.507
- relative viability (BAM7 + Dasatinib; first compound 50 µM): 0.726
- relative viability ([2]; first compound 0.01 µM): 0.262
- relative viability ([2]; first compound 0.03162 µM): 0.254
- relative viability ([2]; first compound 0.1 µM): 0.26
- relative viability ([2]; first compound 0.3162 µM): 0.258
- relative viability ([2]; first compound 1 µM): 0.248
- relative viability (BAM7 + Navitoclax; first compound 0.5 µM): 0.882
- relative viability (BAM7 + Navitoclax; first compound 5 µM): 1.18
- relative viability (BAM7 + Navitoclax; first compound 15.81 µM): 1.11
- relative viability (BAM7 + Navitoclax; first compound 50 µM): 1.08

Cell Line: EBC-1
- relative viability (BAM7 + Navitoclax; first compound 0.5 µM): 0.403
- relative viability (BAM7 + Navitoclax; first compound 5 µM): 0.389
- relative viability (BAM7 + Navitoclax; first compound 15.81 µM): 0.382
- relative viability (BAM7 + Navitoclax; first compound 50 µM): 0.423

Cell Line: EKVX
- relative viability ([1]; first compound 0.01 µM): 0.341
- relative viability ([1]; first compound 0.03162 µM): 0.37
- relative viability ([1]; first compound 0.1 µM): 0.416
- relative viability ([1]; first compound 0.3162 µM): 0.405
- relative viability ([1]; first compound 1 µM): 0.368
- relative viability (BAM7 + Dasatinib; first compound 0.5 µM): 0.604
- relative viability (BAM7 + Dasatinib; first compound 5 µM): 0.586
- relative viability (BAM7 + Dasatinib; first compound 15.81 µM): 0.31
- relative viability (BAM7 + Dasatinib; first compound 50 µM): 0.41
- relative viability ([2]; first compound 0.01 µM): 0.424
- relative viability ([2]; first compound 0.03162 µM): 0.388
- relative viability ([2]; first compound 0.1 µM): 0.409
- relative viability ([2]; first compound 0.3162 µM): 0.393
- relative viability ([2]; first compound 1 µM): 0.355
- relative viability (BAM7 + Navitoclax; first compound 0.5 µM): 1.13
- relative viability (BAM7 + Navitoclax; first compound 5 µM): 0.982
- relative viability (BAM7 + Navitoclax; first compound 15.81 µM): 0.71
- relative viability (BAM7 + Navitoclax; first compound 50 µM): 1.01

Reference: the supplement of paper PMC10307832
